# In US4231936A, “Mitomycin C derivatives” (priority 1977, dated 1980):
# Legend:
# [1] = system: Bacillus subtilis ATCC 10707; assay: Minimum inhibitory concentration (Table I); type: cell-based
# Description: (§1) Comparative data similarly obtained by using mitomycin A, mitomycin C and 7-N-phenyl mitomycin C are also shown in this table
# [2] = system: Klebsiella pneumoniae ATCC 10031; assay: Minimum inhibitory concentration (Table I); type: cell-based
# Description: as §1
# [3] = system: Shigella sonnei ATCC 9290; assay: Minimum inhibitory concentration (Table I); type: cell-based
# Description: as §1
# [4] = system: Staphylococcus aureus ATCC 6538P; assay: Minimum inhibitory concentration (Table I); type: cell-based
# Description: as §1
# [5] = background statement; cited from earlier work
# [6] = background statement; cited from earlier work; remark: listed apart in the source
compound,measurement,setting,value
"CO[C@@]12[C@H](COC(N)=O)C3=C(C(=O)C(C)=C(N)C3=O)N1C[C@@H]1N[C@@H]12 [II, mitomycin C]",minimum inhibitory concentration,[1],< 0.025
same,minimum inhibitory concentration,[2],< 0.025
same,minimum inhibitory concentration,[3],1.563
same,minimum inhibitory concentration,[4],0.049
same,antitumor activity,[5],interesting antitumor activity
same,toxicity,[6],relatively high toxicity
